Data reported in US20100092497A1, “METHODS OF IMMUNE OR HAEMATOLOGICAL ENHANCEMENT, INHIBITING TUMOUR FORMATION OR GROWTH, AND TREATING OR PREVENTING CANCER” (priority 2006, published 2010).

Assays:
[1] = tested on: EL-4 T cell thymic lymphoma; experiment: EL-4 tumour challenge in mice fed experimental diets (tumour growth, rejection, response to paclitaxel); type: in vivo, C57BL/6 mice; conditions: Example 1; control diet; paclitaxel 30 mg/Kg i.p. at tumours ~0.6 cm
[2] = daily for several years; cited from earlier work
EL-4 target cells = experiment: Anti-tumour cytolytic activity of splenocytes (CTL assay); type: cell-based, mouse; conditions: Example 4; high dose vitamin D (45.2 mg/Kg) by itself or Fe-saturated Lf
Protocol: Splenocytes were harvested 28 days following tumour cell injection, as specified. They were incubated at 37° C. with EL-4 target cells in graded E:T ratios in 96-well round-bottom plates. After a 4-hour incubation, 50 μl of supernatant was collected, and lysis was measured using the Cyto Tox 96 Assay Kit (Promega, Madison, Wis., USA). Background controls for non-specific target and effector cell lysis were included. After background subtraction, percentage of cell lysis was calculated using the formula: 100×(experimental-spontaneous effector-spontaneous target/maximum target-spontaneous target).

Row | Compound | tumour response to paclitaxel [1] | daily ingestion after which most cases of toxicity were reported [2] | increase in anti-tumour cytolytic activity of splenocytes, agent by itself (EL-4 target cells) [fold]
1 | CC(=O)O[C@H]1C(=O)[C@@]2(C)[C@H]([C@H](OC(=O)c3ccccc3)[C@]3(O)C[C@H](OC(=O)[C@H](O)[C@@H](NC(=O)c4ccccc4)c4ccccc4)C(C)=C1C3(C)C)[C@]1(OC(C)=O)CO[C@@H]1C[C@@H]2O [paclitaxel, reference compound] | completely resistant |  | 
2 | C=C1CC[C@H](O)C/C1=C/C=C1\CCC[C@]2(C)[C@@H]([C@H](C)CCCC(C)C)CC[C@@H]12 [vitamin D, cholecalciferol, reference compound] |  | greater than 50,000 IU | 1.9
